According to patent US20230250108A1, “TETRAHYDROISOQUINOLINE COMPOUNDS AND USE THEREOF” (JIANGSU SIMCERE PHARMACEUTICAL CO., LTD., priority 2020, published 2023):
Structures can show the parent of a compound that is named as a salt. Where two headings read alike, the source gives them in different places.

Experiments:
PRMT5/MEP50 = molecular target: T1, PRMT5/MEP50 (Homo sapiens, UniProt O14744); assay: PRMT5 enzymatic activity inhibition experiment (AlphaScreen); format: biochemical
T1 construct: purchased BPS Bioscience Inc. (USA)
T1 sequence (O14744 2-637 limits assumed): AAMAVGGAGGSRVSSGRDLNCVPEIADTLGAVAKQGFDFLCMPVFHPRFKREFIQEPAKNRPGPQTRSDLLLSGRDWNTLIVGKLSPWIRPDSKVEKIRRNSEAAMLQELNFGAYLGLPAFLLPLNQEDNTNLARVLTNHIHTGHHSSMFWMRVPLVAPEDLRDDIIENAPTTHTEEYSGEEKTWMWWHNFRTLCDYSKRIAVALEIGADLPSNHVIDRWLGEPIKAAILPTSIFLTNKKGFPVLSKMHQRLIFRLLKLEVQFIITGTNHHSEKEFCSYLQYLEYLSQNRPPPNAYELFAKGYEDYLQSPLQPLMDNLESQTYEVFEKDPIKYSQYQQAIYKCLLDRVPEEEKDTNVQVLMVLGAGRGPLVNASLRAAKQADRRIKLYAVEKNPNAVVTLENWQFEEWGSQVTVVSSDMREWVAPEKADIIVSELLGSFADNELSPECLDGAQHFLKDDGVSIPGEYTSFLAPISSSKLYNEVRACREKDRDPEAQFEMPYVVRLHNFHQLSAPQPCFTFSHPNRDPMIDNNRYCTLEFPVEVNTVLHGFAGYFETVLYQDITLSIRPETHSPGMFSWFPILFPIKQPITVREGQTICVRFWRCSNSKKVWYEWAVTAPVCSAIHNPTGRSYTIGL
T1 sequence (Q9BQA1 2-342 partner limits assumed): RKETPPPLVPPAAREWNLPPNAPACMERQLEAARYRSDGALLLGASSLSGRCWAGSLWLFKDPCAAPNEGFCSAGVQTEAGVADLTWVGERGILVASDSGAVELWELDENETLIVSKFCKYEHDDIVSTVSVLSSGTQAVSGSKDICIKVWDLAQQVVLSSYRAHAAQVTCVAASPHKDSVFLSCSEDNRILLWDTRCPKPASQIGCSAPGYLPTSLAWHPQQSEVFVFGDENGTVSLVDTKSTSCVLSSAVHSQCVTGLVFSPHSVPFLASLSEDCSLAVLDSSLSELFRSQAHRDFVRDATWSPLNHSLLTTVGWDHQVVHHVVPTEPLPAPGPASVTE
Description: Materials: PRMT5/MEP50 proteins were purchased from BPS Bioscience Inc. (USA); Histone H4 Peptide substrate was purchased from Sangon Biotech (Shanghai) Co., Ltd.; Anti-Histone H4 (symmetric dimethyl R3) antibody—ChIP Grade was purchased from Abcam PLC. (USA); S-(5′-Adenosyl)-L-methionine chloride dihydrochloride was purchased from Sigma PLC. (USA); 384-well plate, AlphaScreen Streptavidin Donor beads, AlphaScreen Protein A Acceptor beads, and Envision 2104 multi-label Reader were purchased from Perkin-Elmer Instruments (USA) Corporation; and Echo 550 Liquid Handler was purchased from Labcyte Inc. (USA).
Enzymatic activity assay: The compounds were added into a 384-well plate by using the Echo 550 Liquid Handler with the final concentration of 0-1000 nM (initial concentration: 1000 nM, 3-fold dilution, for 10 points), and the DMSO content was 0.5%. 10 μL of a 2× PRMT5/MEP50 solution was added into each well and incubated at room temperature for 30 minutes. 10 μL of 2× PRMT5/MEP50 substrate solution was added to each well to start the reaction and incubated at room temperature for 60 minutes. A 6× detection reagent containing AlphaScreen Protein A Acceptor beads and Anti-Histone H4 (symmetric dimethyl R3) antibodies was prepared and 5 μL was added to each well. The plate was incubated at room temperature for 60 minutes. A 6× detection reagent containing AlphaScreen Streptavidin Donor beads was prepared and 5 μL was added to each well. The plate was incubated at room temperature for 60 minutes. The signal values were detected by using the Envision.

Z-138 cells = assay: Inhibitory activity on tumor cell proliferation (Cell-Titer Glo, 8 days); format: cell-based; conditions: Homo sapiens, 192 h, read-out: Inhibition of cell proliferation Z-138 IC50
Method: Materials and cells: Z-138 cells were purchased from ATCC (USA); IMDM medium and penicillin-streptomycin were purchased from Sigma PLC. (USA); horse serum was purchased from Hyclone (USA); 96-well plate was purchased from Corning (USA); and Cell-Titer Glo reagent was purchased from Promega (USA).
(§1) Cell culture: Z-138 cells were cultured in an IMDM culture solution containing 10% Horse serum+1% penicillin−streptomycin at 37° C., 5% CO2. Cells in logarithmic growth phase were suitable for the experiment.
Detection of cell proliferation activity: The inhibitory activities of the compounds on the proliferation of Z-138 cells were detected by using the Cell-Titer Glo reagent. The concentrations of the cells were adjusted, and 180 μL was inoculated in each well of the 96-well plate (500/well) and equilibrated for 10-15 minutes at 37° C., 5% CO2. 20 μL of a culture solution containing the compounds was added into each well with the final concentration reaching 0-300 nM (initial concentration: 300 nM, 3-fold dilution, for 10 points), and the DMSO content was 0.1%. The cell plate was placed at 37° C., 5% CO2 and incubated for 8 days. Culture solution was replaced at day 4: 100 μL of the supernatant was slowly aspirated and 100 μL of a fresh culture solution containing the compounds was provided as a supplement while the concentrations of the compounds were held constant. The cell viability was detected by using the Cell-Titer Glo reagent.

SDMA in Z-138 cells = assay: Inhibitory activity on SDMA in cells (immunofluorescent assay); format: cell-based; conditions: Homo sapiens, 48 h, 2 days, read-out: Inhibition of SDMA in cells IC50
Description: Materials and cells: Z-138 cells were purchased from ATCC (USA); IMDM medium and penicillin-streptomycin were purchased from Sigma PLC. (USA); horse serum was purchased from Hyclone (USA); Hoechst antibodies were purchased from Invitrogen (USA); Alexa Fluor 488 goat anti-rabbit IgG antibodies were purchased from Invitrogen (USA); Anti-dimethyl-Arginine symmetric (SYM11) antibodies were purchased from Merck & Co., Inc. (USA); DPBS was purchased from Gibco (USA); Nonfat Dry milk was purchased from Cell Signaling Technology (USA); paraformaldehyde was purchased from Beijing Solarbio Science & Technology Co., Ltd.; 384-well plate and Echo 550 Liquid Handler were purchased from Labcyte Inc. (USA); and an ImageXpress Nano was purchased from Molecular Devices (USA).
as §1
Immunofluorescent assay: The effects of the compounds on SDMA in Z-138 cells were detected by using immunofluorescence. The cells were adjusted to the concentration of 1*10^5/mL and 40 μL was inoculated in each well of the 384-well plate (4000/well) and equilibrated for 10-15 minutes at 37° C., 5% CO2. The compound was added into a 384-well plate by using the Echo 550 Liquid Handler with the final concentration of 0-300 nM (initial concentration: 300 nM, 3-fold dilution, for 10 points), and the DMSO content was 0.1%. The cell plate was placed at 37° C., 5% CO2 and incubated for 2 days. 40 μL of 8% paraformaldehyde was added into each well and incubated at room temperature for 30 minutes. The supernatant was discarded, the plate was washed with DPBS, and 40 μL of 0.5% PBST (phosphate buffer with Tween) was added into each well and incubated at room temperature for 60 minutes. The supernatant was discarded, the plate was washed with 0.05% PBST, and 40 μL of a blocking solution (1% Nonfat milk in 0.05% PBST) was added into each well and incubated at room temperature for 60 minutes. The supernatant was discarded, and 20 μL of the primary antibody (SYM11, diluted with a blocking solution at 1:500) was added into each well and maintained at 4° C. overnight. The supernatant was discarded, the plate was washed with 0.05% PBST, 20 μL of the secondary antibody (Alexa Fluor 488 goat anti-rabbit and Hoechst, diluted with a blocking solution at 1:1000 and 1:5000, respectively) was added to each well and incubated at room temperature for 60 minutes. The supernatant was discarded, the plate was washed with 0.05% PBST, and the fluorescent intensity was detected with ImageXpress Nano.

[1] = Hepatocellular metabolic stability test, human hepatocytes
Description: (§2) Experimental materials: Human hepatocytes were purchased from Biopredic; mouse hepatocytes were purchased from BioIVT; acetonitrile and methanol were purchased from Merck & Co., Inc.; AOPI dyes were purchased from Nexcelom; dexamethasone was purchased from NIFDC; DMSO was purchased from Beijing Solarbio Science & Technology Co., Ltd.; DPBS (10×), GlutaMAX™-1 (100×) and recombinant human insulin were purchased form Gibco by Life Technologies; fetal bovine serum was purchased from Corning; formic acid was purchased from DIKMAPURE; Isotonic Percoll was purchased from GE Healthcare; alprazolam was purchased from Supelco; caffeine was purchased from ChromaDex.inc; and HEPES, tolbutamide and Williams' Medium E were purchased from Sigma.
(§3) The powder of a test substance was formulated with DMSO into a stock solution with a high concentration, which was diluted to a working solution of 100 μM with acetonitrile prior to use. The final concentration of the test substance was 1 μM.
(§4) 49.5 mL of Williams'E Medium and 0.5 mL of GlutaMAX were mixed as an incubation media. Hepatocyte thawing media and incubation media were placed in a 37° C. water-bath and pre-heated for at least 15 minutes prior to use. A tube of hepatocytes stored at an ultra-low temperature was taken and the hepatocytes were ensured to be at a frozen state at a low temperature prior to thawing. The hepatocytes were rapidly placed in a 37° C. water-bath and gently shaken until all the ice crystals were dispersed, and then after 70% ethanol was sprayed, the hepatocytes were transferred to a biosafety cabinet. The content of the tube was poured into a centrifugal tube containing 50 mL of thawing media and centrifuged at 100 g for 10 minutes. After centrifugation, the thawing media was aspirated, and a sufficient amount of incubation media was added to obtain a cell suspension with a cell density of about 1.5×10^6 cells/mL. The hepatocytes were counted, and the viable cell density was determined using Cellometer Vision, and the survival rate of the hepatocytes must be higher than 75%. The hepatocyte suspension was diluted by using the incubation media to a viable cell density of 0.5×10^6 viable cells/mL.
(§5) 247.5 μL of viable cell (human hepatocytes or mouse hepatocytes) suspension or media were transferred into a 96-well deep-well plate, and the deep-well plate was placed in a vortex incubator and pre-heated for 10 minutes. Incubation of all the samples was performed in parallel duplicate. Test substance (2.5 μL, 100 μM) was added into each well to start the reaction and the deep-well plate was placed in the vortex incubator again. The samples were incubated, and 25 μL of the suspension was taken at 0, 15, 30, 60, 90 and 120 minutes, respectively. 125 μL of acetonitrile containing internal standard (100 nM alprazolam, 200 nM caffeine, and 100 nM tolbutamide) was added to terminate the reaction. The mixture was vortexed for 10 minutes and centrifuged at 3220 g, 4° C. for 30 minutes. After centrifugation, 100 μL of the supernatant was transferred into the loading plate and 150 μL of pure water was added and mixed uniformly for LC-MS/MS analysis.
(§6) All the data calculation was performed by the Microsoft Excel software. The peak area was detected by extracting the ion chromatogram. The in vitro half-life (t1/2) of the parent drug was detected by performing linear fitting of the natural logarithm of elimination percent of the parent drug and time.
(§7) The in vitro half-life (t1/2) was calculated by means of the slope:

[2] = Hepatocellular metabolic stability test, mouse hepatocytes
Description: as §2, §3, §4, §5, §6, §7

in vitro [3] = conditions: human, hepatocytes
Description: as §2, §3, §4, §5, §6, §7

in vitro [4] = conditions: mouse, hepatocytes
Description: as §2, §3, §4, §5, §6, §7

[5] = PRMT5/MEP50, Histone H4 peptide substrate, read-out: Inhibition of enzymatic activity IC50

| SMILES | IC50 (PRMT5/MEP50; [5]) [nM] | half-life at 1 μM (in vitro [3]) [h] | half-life at 1 μM (in vitro [4]) [h] | IC50 (PRMT5/MEP50) [nM] | IC50 (Z-138 cells) [nM] | IC50 (SDMA in Z-138 cells) [nM] | half-life at 1 μM [1] [h] | half-life at 1 μM [2] [h] |
| --- | --- | --- | --- | --- | --- | --- | --- | --- |
| CCN1CCN(C[C@@H](O)[C@@H]2Cc3ccccc3CN2)C(=O)c2ccc(C(=O)N3C4CCC3COC4)cc21.Cl [Compound 001, 8-(3-oxa-8-azabicyclo[3.2.1]octane-8-carbonyl)-1-ethyl-4-((R)-2-hydroxy-2-((S)-1,2,3,4-tetrahydroisoquinolin-3-yl)ethyl)-1,2,3,4-tetrahydro-5H-benzo[e][1,4]diazepin-5-one hydrochloride] | – | – | – | 4.56 | 3.47 | 3.8 | 24.5 | 2.04 |
| CCN1CCN(C[C@@H](O)[C@@H]2Cc3ccccc3CN2)C(=O)c2ccc(C(=O)N3C4CCC3CC(OC)C4)cc21.Cl (stereo partly drawn) [Compound 004, 1-ethyl-4-((R)-2-hydroxy-2-((S)-1,2,3,4-tetrahydroisoquinolin-3-yl)ethyl)-8-(3-methoxy-8-azabicyclo[3.2.1]octane-8-carbonyl)-1,2,3,4-tetrahydro-5H-benzo[e][1,4]diazepin-5-one hydrochloride] | – | – | – | 4.53 | 1.87 | 1.4 | 11.2 | 0.871 |
| COC1CC2CCC(C1)N2C(=O)c1ccc2c(c1)N(C)CCN(C[C@@H](O)[C@@H]1Cc3ccccc3CN1)C2=O.Cl (stereo partly drawn) [Compound 005, 4-((R)-2-hydroxy-2-((S)-1,2,3,4-tetrahydroisoquinolin-3-yl)ethyl)-8-(3-methoxy-8-azabicyclo[3.2.1]octane-8-carbonyl)-1-methyl-1,2,3,4-tetrahydro-5H-benzo[e][1,4]diazepin-5-one hydrochloride] | – | – | – | 6.73 | 4.27 | 1.5 | 5.61 | 1.3 |
| COC1CC2CCC(C1)N2C(=O)c1ccc2c(c1)OCCN(C[C@@H](O)[C@@H]1Cc3ccccc3CN1)C2=O (stereo partly drawn) [Compound 008, 4-((R)-2-hydroxy-2-((S)-1,2,3,4-tetrahydroisoquinolin-3-yl)ethyl)-8-(3-methoxy-8-azabicyclo[3.2.1]octane-8-carbonyl)-3,4-dihydrobenzo[f][1,4]oxazepin-5(2H)-one] | 12.2 | – | – | – | 6.04 | – | – | – |

Second part, led by results:

| IC50 (PRMT5/MEP50; [5]) [nM] | half-life at 1 μM (in vitro [3]) [h] | half-life at 1 μM (in vitro [4]) [h] | SMILES | IC50 (PRMT5/MEP50) [nM] | IC50 (Z-138 cells) [nM] | IC50 (SDMA in Z-138 cells) [nM] | half-life at 1 μM [1] [h] | half-life at 1 μM [2] [h] |
| --- | --- | --- | --- | --- | --- | --- | --- | --- |
| 2.02 | 131 | 1.97 | CCN1CCN(C[C@@H](O)[C@@H]2Cc3ccccc3CN2)C(=O)c2ccc(C(=O)N3CCC4(CC3)CC(C#N)C4)cc21 [Compound 003, 7-(1-ethyl-4-((R)-2-hydroxy-2-((S)-1,2,3,4-tetrahydroisoquinolin-3-yl)ethyl)-5-oxo-2,3,4,5-tetrahydro-1H-benzo[e][1,4]diazepine-8-carbonyl)-7-azaspiro[3.5]nonane-2-carbonitrile] | – | 1.21 | 0.8 | – | – |
| 3.62 | – | – | CCN1CCN(C[C@@H](O)[C@@H]2Cc3ccccc3CN2)C(=O)c2ccc(C(=O)N3CCC4(CCC(OC)CC4)CC3)cc21 [Compound 006, 1-ethyl-4-((R)-2-hydroxy-2-((S)-1,2,3,4-tetrahydroisoquinolin-3-yl)ethyl)-8-(9-methoxy-3-azaspiro[5.5]undecane-3-carbonyl)-1,2,3,4-tetrahydro-5H-benzo[e][1,4]diazepin-5-one hydrochloride] | – | 4.8 | 1.8 | – | – |
| 4.96 | – | – | COC1CC2(CCN(C(=O)c3ccc4c(c3)OCCN(C[C@@H](O)[C@@H]3Cc5ccccc5CN3)C4=O)CC2)C1 [Compound 009, 4-((R)-2-hydroxy-2-((S)-1,2,3,4-tetrahydroisoquinolin-3-yl)ethyl)-8-(2-methoxy-7-azaspiro[3.5]nonane-7-carbonyl)-3,4-dihydrobenzo[f][1,4]oxazepin-5(2H)-one] | – | 2.97 | 6.1 | – | – |
| – | 12.9 | 0.588 | CCN1CCN(C[C@@H](O)[C@@H]2Cc3ccccc3CN2)C(=O)c2ccc(C(=O)N3CCC4(CC3)CC(O)C4)cc21 [Compound 024, 1-ethyl-4-((R)-2-hydroxy-2-((S)-1,2,3,4-tetrahydroisoquinolin-3-yl)ethyl)-8-(2-hydroxy-7-azaspiro[3.5]nonane-7-carbonyl)-1,2,3,4-tetrahydro-5H-benzo[e][1,4]diazepin-5-one] | – | 10.6 | – | – | – |
